# Source: ChEMBL document CHEMBL5696442, “Discovery of type II inhibitors of TGFβ-activated kinase 1 (TAK1) and mitogen-activated protein kinase kinase kinase kinase 2 (MAP4K2)” (J Med Chem, 2015)
# The source made the active and inactive calls. The calls are words filed in the database; no cut-off is given here.
# What was measured:
# [1] = biological target: T1, Inhibitor of nuclear factor kappa-B kinase subunit epsilon (Homo sapiens) (UniProt Q14164); experiment: Inhibition of IKKe Lys2 labeling site in human Huh-7 cell lysate at 1 uM by KiNativ Profiling analysis relative to control; assay type: subcellular
# T1 sequence (whole entry): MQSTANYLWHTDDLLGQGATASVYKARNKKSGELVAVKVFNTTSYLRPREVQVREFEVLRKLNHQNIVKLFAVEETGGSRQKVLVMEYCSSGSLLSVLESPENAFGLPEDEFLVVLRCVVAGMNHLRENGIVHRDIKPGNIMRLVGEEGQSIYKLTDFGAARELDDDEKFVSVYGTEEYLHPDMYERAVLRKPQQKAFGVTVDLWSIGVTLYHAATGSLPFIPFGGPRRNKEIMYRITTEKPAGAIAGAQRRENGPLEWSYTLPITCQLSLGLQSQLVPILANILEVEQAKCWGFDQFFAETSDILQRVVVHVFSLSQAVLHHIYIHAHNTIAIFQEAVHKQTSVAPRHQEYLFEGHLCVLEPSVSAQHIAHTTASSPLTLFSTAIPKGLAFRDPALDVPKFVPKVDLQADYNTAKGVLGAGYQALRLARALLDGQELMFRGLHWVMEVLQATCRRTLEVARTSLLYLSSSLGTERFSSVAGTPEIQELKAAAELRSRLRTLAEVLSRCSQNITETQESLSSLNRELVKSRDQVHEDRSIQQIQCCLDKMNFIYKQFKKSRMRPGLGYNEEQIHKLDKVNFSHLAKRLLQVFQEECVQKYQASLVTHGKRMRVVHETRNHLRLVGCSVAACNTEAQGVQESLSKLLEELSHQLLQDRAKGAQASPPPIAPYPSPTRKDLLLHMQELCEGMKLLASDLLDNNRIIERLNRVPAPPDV
# [2] = biological target: T2, Scaffold protein ILK (Homo sapiens) (UniProt Q13418); experiment: Inhibition of ILK Lys1 labeling site in human Huh-7 cell lysate at 1 uM by KiNativ Profiling analysis relative to control; assay type: subcellular
# T2 sequence (whole entry): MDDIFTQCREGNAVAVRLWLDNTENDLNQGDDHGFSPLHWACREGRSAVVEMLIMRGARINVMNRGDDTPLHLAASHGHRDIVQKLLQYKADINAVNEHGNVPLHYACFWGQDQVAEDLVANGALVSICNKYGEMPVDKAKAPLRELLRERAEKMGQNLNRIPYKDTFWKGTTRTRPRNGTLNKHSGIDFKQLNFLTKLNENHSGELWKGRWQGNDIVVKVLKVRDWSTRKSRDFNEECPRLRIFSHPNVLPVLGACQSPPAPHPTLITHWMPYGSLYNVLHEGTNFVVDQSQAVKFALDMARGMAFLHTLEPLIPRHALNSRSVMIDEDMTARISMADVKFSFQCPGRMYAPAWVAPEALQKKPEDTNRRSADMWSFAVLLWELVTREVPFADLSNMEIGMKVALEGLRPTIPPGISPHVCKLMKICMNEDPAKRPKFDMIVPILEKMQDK
# [3] = biological target: Ribosomal protein S6 kinase alpha-1 (Homo sapiens) (UniProt Q15418); experiment: Inhibition of RSK1 domain1 ACT labeling site in human A-375 cells at 5 uM by KiNativ Profiling analysis relative to control; assay type: cell-based
# [4] = biological target: Discoidin domain-containing receptor 2 (Homo sapiens) (UniProt Q16832); experiment: Inhibition of DDR2 (unknown origin) at 1 uM by Ambit Kinomescan binding assay relative to control; values are per cent of control
# [5] = biological target: Serine/threonine-protein kinase 4 (Homo sapiens) (UniProt Q13043); experiment: Inhibition of MST1 Lys1 labeling site harbouring AIHKETGQIVAIKQVPVESDLQEIIK in human A-375 cells at 0.5 uM by KiNativ Profiling analysis relative to control
# [6] = biological target: 3-phosphoinositide-dependent protein kinase 1 (Homo sapiens) (UniProt O15530); experiment: Inhibition of PDPK1 (unknown origin) at 10 uM by Ambit Kinomescan binding assay
# [7] = biological target: Serine/threonine-protein kinase B-raf (Homo sapiens, UniProt P15056); experiment: Inhibition of BRAF K2 labeling site in human Huh-7 cells at 10 uM by KiNativ Profiling analysis relative to control; assay type: cell-based
# [8] = biological target: T3, Interleukin-1 receptor-associated kinase 4 (Homo sapiens) (UniProt Q9NWZ3); experiment: Inhibition of IRAK4 K2 labeling site in human Huh-7 cells at 10 uM by KiNativ Profiling analysis relative to control; assay type: cell-based
# T3 sequence (whole entry): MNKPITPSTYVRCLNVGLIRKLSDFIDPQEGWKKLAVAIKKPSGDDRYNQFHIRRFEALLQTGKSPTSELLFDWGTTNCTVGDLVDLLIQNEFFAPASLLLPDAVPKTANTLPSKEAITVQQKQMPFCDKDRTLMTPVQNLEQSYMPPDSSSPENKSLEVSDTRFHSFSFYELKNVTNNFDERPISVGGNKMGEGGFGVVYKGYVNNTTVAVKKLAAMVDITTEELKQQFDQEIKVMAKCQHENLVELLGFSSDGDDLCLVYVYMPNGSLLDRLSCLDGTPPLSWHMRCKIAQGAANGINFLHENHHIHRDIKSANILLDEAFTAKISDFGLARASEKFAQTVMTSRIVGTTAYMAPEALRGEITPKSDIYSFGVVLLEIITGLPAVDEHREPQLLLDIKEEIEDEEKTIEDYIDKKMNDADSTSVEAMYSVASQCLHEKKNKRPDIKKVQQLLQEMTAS
# [9] = biological target: T4, Phosphatidylinositol 5-phosphate 4-kinase type-2 alpha (Homo sapiens) (UniProt P48426); experiment: Inhibition of PIP5K2A C2 labeling site in human Huh-7 cells at 10 uM by KiNativ Profiling analysis relative to control; assay type: cell-based
# T4 sequence (whole entry): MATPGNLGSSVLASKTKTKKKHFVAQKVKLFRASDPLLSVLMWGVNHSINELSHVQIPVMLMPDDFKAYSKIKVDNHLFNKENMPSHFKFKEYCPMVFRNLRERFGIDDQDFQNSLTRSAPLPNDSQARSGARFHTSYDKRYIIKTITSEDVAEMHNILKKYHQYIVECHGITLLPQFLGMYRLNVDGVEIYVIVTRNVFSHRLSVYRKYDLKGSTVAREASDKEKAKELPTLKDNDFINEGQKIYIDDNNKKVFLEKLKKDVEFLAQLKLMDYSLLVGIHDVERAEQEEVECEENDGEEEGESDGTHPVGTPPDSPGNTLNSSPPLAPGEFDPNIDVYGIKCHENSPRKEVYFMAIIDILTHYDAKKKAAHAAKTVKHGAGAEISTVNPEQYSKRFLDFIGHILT
# [10] = biological target: Cyclin-dependent kinase 14 (Homo sapiens) (UniProt O94921); experiment: Inhibition of PFTAIRE1 Lys1 labeling site in human A-375 cells at 5 uM by KiNativ Profiling analysis relative to control
# Cyclin-dependent kinase 14 (Homo sapiens), sequence (O94921 whole entry, looked up): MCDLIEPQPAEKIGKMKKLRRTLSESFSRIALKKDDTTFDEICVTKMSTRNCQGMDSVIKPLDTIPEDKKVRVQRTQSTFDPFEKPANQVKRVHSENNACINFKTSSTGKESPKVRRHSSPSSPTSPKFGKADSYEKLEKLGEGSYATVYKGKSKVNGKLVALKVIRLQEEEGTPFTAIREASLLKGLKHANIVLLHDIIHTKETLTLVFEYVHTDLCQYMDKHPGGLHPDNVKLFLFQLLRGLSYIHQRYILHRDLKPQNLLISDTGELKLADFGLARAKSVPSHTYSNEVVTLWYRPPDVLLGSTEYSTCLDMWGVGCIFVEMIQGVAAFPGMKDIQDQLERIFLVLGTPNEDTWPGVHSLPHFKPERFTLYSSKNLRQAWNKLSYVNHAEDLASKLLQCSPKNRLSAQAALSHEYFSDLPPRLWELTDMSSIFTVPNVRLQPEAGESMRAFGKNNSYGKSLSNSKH
# Ribosomal protein S6 kinase alpha-1 (Homo sapiens), sequence (Q15418 whole entry, the tested form may be a part): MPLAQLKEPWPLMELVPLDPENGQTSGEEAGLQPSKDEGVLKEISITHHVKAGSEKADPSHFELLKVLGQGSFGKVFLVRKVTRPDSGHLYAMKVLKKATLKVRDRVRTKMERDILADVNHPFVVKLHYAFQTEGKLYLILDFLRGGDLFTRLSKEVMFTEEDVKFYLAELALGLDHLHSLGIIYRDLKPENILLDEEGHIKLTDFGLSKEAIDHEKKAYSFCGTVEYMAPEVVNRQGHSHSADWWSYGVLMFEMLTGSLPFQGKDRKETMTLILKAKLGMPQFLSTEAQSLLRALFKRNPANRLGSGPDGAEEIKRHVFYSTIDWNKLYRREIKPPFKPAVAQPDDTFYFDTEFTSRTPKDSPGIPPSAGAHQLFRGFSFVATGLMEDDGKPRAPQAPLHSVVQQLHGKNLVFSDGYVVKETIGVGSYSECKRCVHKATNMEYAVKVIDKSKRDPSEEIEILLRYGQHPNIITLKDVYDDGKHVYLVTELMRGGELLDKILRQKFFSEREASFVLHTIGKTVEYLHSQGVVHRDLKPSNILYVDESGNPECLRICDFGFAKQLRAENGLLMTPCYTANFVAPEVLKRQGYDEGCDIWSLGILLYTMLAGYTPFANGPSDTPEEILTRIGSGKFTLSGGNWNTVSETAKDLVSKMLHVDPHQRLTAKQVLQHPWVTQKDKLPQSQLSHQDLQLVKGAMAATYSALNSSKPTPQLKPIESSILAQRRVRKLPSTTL
# Serine/threonine-protein kinase 4 (Homo sapiens), sequence (Q13043 whole entry, looked up): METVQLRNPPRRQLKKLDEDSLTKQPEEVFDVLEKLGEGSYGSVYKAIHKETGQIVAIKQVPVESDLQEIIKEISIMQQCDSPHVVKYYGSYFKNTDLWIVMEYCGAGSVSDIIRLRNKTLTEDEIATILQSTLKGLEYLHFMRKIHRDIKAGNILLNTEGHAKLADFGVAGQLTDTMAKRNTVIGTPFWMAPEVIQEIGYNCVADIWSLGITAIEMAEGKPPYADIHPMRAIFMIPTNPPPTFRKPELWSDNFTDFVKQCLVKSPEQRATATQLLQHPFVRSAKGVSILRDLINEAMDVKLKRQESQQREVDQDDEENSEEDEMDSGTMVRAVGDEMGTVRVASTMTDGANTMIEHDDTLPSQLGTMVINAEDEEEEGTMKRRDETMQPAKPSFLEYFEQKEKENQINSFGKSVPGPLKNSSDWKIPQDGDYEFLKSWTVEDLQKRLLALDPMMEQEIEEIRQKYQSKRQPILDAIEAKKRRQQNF
# Discoidin domain-containing receptor 2 (Homo sapiens), sequence (Q16832 whole entry, the tested form may be a part): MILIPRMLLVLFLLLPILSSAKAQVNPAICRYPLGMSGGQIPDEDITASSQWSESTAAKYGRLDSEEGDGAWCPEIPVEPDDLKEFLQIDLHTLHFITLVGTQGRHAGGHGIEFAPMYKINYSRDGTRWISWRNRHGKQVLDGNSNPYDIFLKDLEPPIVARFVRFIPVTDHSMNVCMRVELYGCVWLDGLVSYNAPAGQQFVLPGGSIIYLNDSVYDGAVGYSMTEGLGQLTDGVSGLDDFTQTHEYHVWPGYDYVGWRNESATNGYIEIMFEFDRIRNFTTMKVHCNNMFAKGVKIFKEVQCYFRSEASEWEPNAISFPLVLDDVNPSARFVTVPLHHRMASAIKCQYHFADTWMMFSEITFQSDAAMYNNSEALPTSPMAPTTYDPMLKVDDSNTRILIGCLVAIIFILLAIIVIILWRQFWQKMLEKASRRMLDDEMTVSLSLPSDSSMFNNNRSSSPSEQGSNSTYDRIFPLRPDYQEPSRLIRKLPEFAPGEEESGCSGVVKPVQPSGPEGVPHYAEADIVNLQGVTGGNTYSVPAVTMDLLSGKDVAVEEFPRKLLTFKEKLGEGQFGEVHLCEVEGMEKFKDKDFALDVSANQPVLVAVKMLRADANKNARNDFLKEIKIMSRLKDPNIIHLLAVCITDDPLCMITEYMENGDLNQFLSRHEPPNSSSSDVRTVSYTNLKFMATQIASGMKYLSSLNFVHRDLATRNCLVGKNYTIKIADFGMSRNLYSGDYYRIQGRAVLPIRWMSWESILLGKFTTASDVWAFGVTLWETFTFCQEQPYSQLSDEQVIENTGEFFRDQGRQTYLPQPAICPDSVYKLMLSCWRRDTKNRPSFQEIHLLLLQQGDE
# 3-phosphoinositide-dependent protein kinase 1 (Homo sapiens), sequence (O15530 whole entry): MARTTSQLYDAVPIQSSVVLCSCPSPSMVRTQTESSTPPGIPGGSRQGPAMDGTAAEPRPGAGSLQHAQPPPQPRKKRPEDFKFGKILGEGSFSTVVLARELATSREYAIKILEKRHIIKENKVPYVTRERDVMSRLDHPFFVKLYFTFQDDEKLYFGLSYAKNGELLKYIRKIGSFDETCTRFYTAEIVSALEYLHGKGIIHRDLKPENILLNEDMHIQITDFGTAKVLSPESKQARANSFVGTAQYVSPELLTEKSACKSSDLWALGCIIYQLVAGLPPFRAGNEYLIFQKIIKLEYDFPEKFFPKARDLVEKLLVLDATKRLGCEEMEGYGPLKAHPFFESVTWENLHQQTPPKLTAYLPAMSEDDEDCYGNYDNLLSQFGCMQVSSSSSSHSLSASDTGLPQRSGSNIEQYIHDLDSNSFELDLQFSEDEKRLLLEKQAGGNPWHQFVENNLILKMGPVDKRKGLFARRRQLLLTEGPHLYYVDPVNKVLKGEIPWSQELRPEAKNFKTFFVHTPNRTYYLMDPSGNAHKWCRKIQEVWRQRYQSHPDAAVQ
# Serine/threonine-protein kinase B-raf, sequence (P15056 whole entry): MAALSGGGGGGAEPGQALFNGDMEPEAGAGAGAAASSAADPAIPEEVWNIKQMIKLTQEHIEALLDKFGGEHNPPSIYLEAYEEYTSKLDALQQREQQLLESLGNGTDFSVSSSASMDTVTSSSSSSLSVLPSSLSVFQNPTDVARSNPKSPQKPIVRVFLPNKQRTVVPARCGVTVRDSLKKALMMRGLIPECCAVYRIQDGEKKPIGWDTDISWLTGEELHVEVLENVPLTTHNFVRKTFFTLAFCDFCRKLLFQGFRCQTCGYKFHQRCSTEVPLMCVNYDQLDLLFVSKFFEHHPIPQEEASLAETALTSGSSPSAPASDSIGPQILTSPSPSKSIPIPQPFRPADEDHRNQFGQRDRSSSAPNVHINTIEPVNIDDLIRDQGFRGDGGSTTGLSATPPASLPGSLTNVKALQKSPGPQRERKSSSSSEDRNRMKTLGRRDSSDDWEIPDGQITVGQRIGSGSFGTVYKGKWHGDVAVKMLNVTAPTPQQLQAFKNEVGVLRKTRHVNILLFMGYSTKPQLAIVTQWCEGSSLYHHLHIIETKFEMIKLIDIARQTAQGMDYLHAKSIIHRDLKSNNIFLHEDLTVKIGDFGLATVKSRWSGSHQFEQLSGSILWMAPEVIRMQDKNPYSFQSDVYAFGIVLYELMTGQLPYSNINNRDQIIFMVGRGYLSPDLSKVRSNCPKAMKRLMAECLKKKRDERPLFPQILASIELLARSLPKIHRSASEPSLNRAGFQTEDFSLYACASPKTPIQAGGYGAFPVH
structure (smiles),measurement,setting,value
CNc1cc(Oc2cc(C(=O)Nc3cc(N4CCN(C)CC4)cc(C(F)(F)F)c3)ccc2C)ncn1,inhibition,[1],-5.8%
same,inhibition,[2],-6.9%
CCN1CCN(Cc2ccc(NC(=O)c3ccc(C)c(/C=C/c4cnc5[nH]ccc5c4OC)c3)cc2C(F)(F)F)CC1,inhibition,[3],14.7%
same,residual activity,[4],0.2%
same,inhibition,[5],-4.7%
CCN1CCN(Cc2ccc(NC(=O)c3ccc(C)c(Oc4ccnc5[nH]ccc45)c3)cc2C(F)(F)F)CC1,inhibition,[6],inactive
same,inhibition,[7],5.2%
same,inhibition,[8],17.8%
same,inhibition,[9],1.3%
same,inhibition,[10],81%
